Reference: patent US8192962B2, “Processes for detecting toxic substances” (Daikin Industries, Ltd., priority 2001, dated 2012)

Tested on: Mitochondria-located protein genes
Assay: DNA chip mRNA expression in yeast, mitochondria-located protein genes (Table 2)
Assay type: cell-based, Saccharomyces cerevisiae S288C
Settings: cells incubated two hours with the chemical substance
Method in brief: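 First, S288C yeast grown in YPD at 25° C. are dosed in log phase with one toxicant (growth-inhibiting, not lethal) for 2 h. Next, total RNA is extracted and poly(A) mRNA isolated and reverse-transcribed with Cy3/Cy5-dUTP. Finally, whole-genome chip fluorescence is read relative to unexposed cells.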

## [Cl][Pb][Cl] [(4), PbCl2]
Yeast gene YKL003C
  The level of expressed mRNA in the presence of chemical substance/The level of expressed mRNA in the absence of chemical substance: 1.8
Yeast gene YKL016C
  The level of expressed mRNA in the presence of chemical substance/The level of expressed mRNA in the absence of chemical substance: 1.7
Yeast gene YKL141W
  The level of expressed mRNA in the presence of chemical substance/The level of expressed mRNA in the absence of chemical substance: 1.7
Yeast gene YKL142W
  The level of expressed mRNA in the presence of chemical substance/The level of expressed mRNA in the absence of chemical substance: 1.4
Yeast gene YKL148C
  The level of expressed mRNA in the presence of chemical substance/The level of expressed mRNA in the absence of chemical substance: 0.7
Yeast gene YKL170W
  The level of expressed mRNA in the presence of chemical substance/The level of expressed mRNA in the absence of chemical substance: 1.9
Yeast gene YKL194C
  The level of expressed mRNA in the presence of chemical substance/The level of expressed mRNA in the absence of chemical substance: 1.6
Yeast gene YKR066C
  The level of expressed mRNA in the presence of chemical substance/The level of expressed mRNA in the absence of chemical substance: 0.7
Yeast gene YLL041C
  The level of expressed mRNA in the presence of chemical substance/The level of expressed mRNA in the absence of chemical substance: 1.0
Yeast gene YLR038C
  The level of expressed mRNA in the presence of chemical substance/The level of expressed mRNA in the absence of chemical substance: 2.1
Yeast gene YLR259C
  The level of expressed mRNA in the presence of chemical substance/The level of expressed mRNA in the absence of chemical substance: 1.6
Yeast gene YLR295C
  The level of expressed mRNA in the presence of chemical substance/The level of expressed mRNA in the absence of chemical substance: 1.7
Yeast gene YLR304C
  The level of expressed mRNA in the presence of chemical substance/The level of expressed mRNA in the absence of chemical substance: 0.7
Yeast gene YLR348C
  The level of expressed mRNA in the presence of chemical substance/The level of expressed mRNA in the absence of chemical substance: 1.2
Yeast gene YLR395C
  The level of expressed mRNA in the presence of chemical substance/The level of expressed mRNA in the absence of chemical substance: 1.9
Yeast gene YML054C
  The level of expressed mRNA in the presence of chemical substance/The level of expressed mRNA in the absence of chemical substance: 3.4
Yeast gene YML120C
  The level of expressed mRNA in the presence of chemical substance/The level of expressed mRNA in the absence of chemical substance: 1.9
Yeast gene YML129C
  The level of expressed mRNA in the presence of chemical substance/The level of expressed mRNA in the absence of chemical substance: 1.2
Yeast gene YMR023C
  The level of expressed mRNA in the presence of chemical substance/The level of expressed mRNA in the absence of chemical substance: 1.9
Yeast gene YMR035W
  The level of expressed mRNA in the presence of chemical substance/The level of expressed mRNA in the absence of chemical substance: 1.7
Yeast gene YMR083W
  The level of expressed mRNA in the presence of chemical substance/The level of expressed mRNA in the absence of chemical substance: 1.1
Yeast gene YMR089C
  The level of expressed mRNA in the presence of chemical substance/The level of expressed mRNA in the absence of chemical substance: 0.9
Yeast gene YMR152W
  The level of expressed mRNA in the presence of chemical substance/The level of expressed mRNA in the absence of chemical substance: 0.9
Yeast gene YMR203W
  The level of expressed mRNA in the presence of chemical substance/The level of expressed mRNA in the absence of chemical substance: 1.4
Yeast gene YMR267W
  The level of expressed mRNA in the presence of chemical substance/The level of expressed mRNA in the absence of chemical substance: 0.9
Yeast gene YNL055C
  The level of expressed mRNA in the presence of chemical substance/The level of expressed mRNA in the absence of chemical substance: 2.0
Yeast gene YNL071W
  The level of expressed mRNA in the presence of chemical substance/The level of expressed mRNA in the absence of chemical substance: 1.5
Yeast gene YNL073W
  The level of expressed mRNA in the presence of chemical substance/The level of expressed mRNA in the absence of chemical substance: 1.7
Yeast gene YNL104C
  The level of expressed mRNA in the presence of chemical substance/The level of expressed mRNA in the absence of chemical substance: 0.9
Yeast gene YNL256W
  The level of expressed mRNA in the presence of chemical substance/The level of expressed mRNA in the absence of chemical substance: 0.6
Yeast gene YOL096C
  The level of expressed mRNA in the presence of chemical substance/The level of expressed mRNA in the absence of chemical substance: 1.6
Yeast gene YOR020C
  The level of expressed mRNA in the presence of chemical substance/The level of expressed mRNA in the absence of chemical substance: 1.7
Yeast gene YOR037W
  The level of expressed mRNA in the presence of chemical substance/The level of expressed mRNA in the absence of chemical substance: 1.4
Yeast gene YOR100C
  The level of expressed mRNA in the presence of chemical substance/The level of expressed mRNA in the absence of chemical substance: 1.7
Yeast gene YOR130C
  The level of expressed mRNA in the presence of chemical substance/The level of expressed mRNA in the absence of chemical substance: 1.0
Yeast gene YOR142W
  The level of expressed mRNA in the presence of chemical substance/The level of expressed mRNA in the absence of chemical substance: 1.0
Yeast gene YOR150W
  The level of expressed mRNA in the presence of chemical substance/The level of expressed mRNA in the absence of chemical substance: 1.9
Yeast gene YOR176W
  The level of expressed mRNA in the presence of chemical substance/The level of expressed mRNA in the absence of chemical substance: 0.9
Yeast gene YOR187W
  The level of expressed mRNA in the presence of chemical substance/The level of expressed mRNA in the absence of chemical substance: 2.0
Yeast gene YOR316C
  The level of expressed mRNA in the presence of chemical substance/The level of expressed mRNA in the absence of chemical substance: 1.5
Yeast gene YPL040C
  The level of expressed mRNA in the presence of chemical substance/The level of expressed mRNA in the absence of chemical substance: 1.7
Yeast gene YPL134C
  The level of expressed mRNA in the presence of chemical substance/The level of expressed mRNA in the absence of chemical substance: 1.6
Yeast gene YPL135W
  The level of expressed mRNA in the presence of chemical substance/The level of expressed mRNA in the absence of chemical substance: 1.2
Yeast gene YPL215W
  The level of expressed mRNA in the presence of chemical substance/The level of expressed mRNA in the absence of chemical substance: 1.5
Yeast gene YPL262W
  The level of expressed mRNA in the presence of chemical substance/The level of expressed mRNA in the absence of chemical substance: 1.2
Yeast gene YPR024W
  The level of expressed mRNA in the presence of chemical substance/The level of expressed mRNA in the absence of chemical substance: 1.0
Yeast gene YPR037C
  The level of expressed mRNA in the presence of chemical substance/The level of expressed mRNA in the absence of chemical substance: 1.3
Yeast gene YPR047W
  The level of expressed mRNA in the presence of chemical substance/The level of expressed mRNA in the absence of chemical substance: 1.5
Yeast gene YPR067W
  The level of expressed mRNA in the presence of chemical substance/The level of expressed mRNA in the absence of chemical substance: 0.9
Yeast gene YPR134W
  The level of expressed mRNA in the presence of chemical substance/The level of expressed mRNA in the absence of chemical substance: 1.7
